In patent US20040023986A1, “Substituted felbamate derived compounds” (priority 2003, published 2004):

Tests used:
[1] = human, after felbamate; cited from earlier work
[2] = felbamate therapy; cited from earlier work
[3] = LC/MS quantification of felbamate and its metabolites excreted in patient urine; type: in vivo, human; details: 34 urine samples from 31 patients on felbamate therapy
Description: Preparation of Patient Urine Samples. Urine samples were obtained from patient volunteers undergoing felbamate therapy for control of epileptic seizures and under the care of physicians at either the University of Virginia (Charlottesville, Va.) or the EpiCare Center (Memphis, Tenn.). Urine samples were diluted four fold with distilled water (this was done prior to overnight shipment for samples requiring shipping) and placed in an orbital shaking water bath for˜20 min at 37° C. to insure that all of the analytes were in solution. 500 μL of this diluted sample were removed and added to 100 μL of a mixture of the four deuterated internal standards. […] After mixing, 200 μL were removed and added to 20 μL of 20% H0Ac. […] This fraction was then analyzed by LC/MS without further manipulation.
LC/MS Analysis of Urine Samples for Metabolite Quantification. LC/MS analysis was performed using a Waters 2690 HPLC equipped with an autosampler and a Waters 486 tunable absorbance detector. […] The post-column flow was directed through a Waters 486 tunable absorbance detector (10 μL flow cell, λ=214 nm) which was used for qualitative assessment of the sample and not for quantitation. […]
Quantification was achieved by integration of the peaks from the mass chromatogram for each analyte using software (Navigator 1.1) provided with the LCQ. […]

[4] = cited from earlier work
[5] = tested on: intractable tic douloureux; details: doses of 1200-2400 mg/day (Chesire 1995); cited from earlier work
[6] = tested on: rat model of painful peripheral neuropathy; details: rat (Imamura 1995); cited from earlier work
[7] = Chemical stability of felbamate metabolites; type: physicochemical; details: at relevant pH

**Q.** Which “fraction of a felbamate dose represented by the metabolite” value [1] does the source give for `NC(=O)CC(C(=O)O)c1ccccc1` (centres unmarked) [acid carbamate 4, 3-carbamoyl-2-phenylpropionic acid] here?
**A.** Its value is ~12 % of a dose.

**Q.** Which “mean onset time of severe toxicities” value [2] does the source give for `NC(=O)OCC(COC(N)=O)c1ccccc1` [felbamate, 2-phenyl-1,3-propanediol dicarbamate] here?
**A.** Its value is no more than 6 months.

**Q.** What about the “presence of atropaldehyde derived mercapturic acids 7 and 8 in urine” value [3] of the same compound?
**A.** The value was “All of the urine samples analyzed were found to contain both of the mercapturic acids”.

**Q.** What about the “course of weight loss” value ([4]; add-on therapy in partial epilepsy in children (Carmant 1994)) of the same compound?
**A.** The value was “weight loss was transient and returned to normal after twenty weeks”.

**Q.** And the weight loss ([4]; patients on felbamate monotherapy (Faught 1993))?
**A.** Its weight loss is 4-5%.

**Q.** What about the treatment effect [5] of the same compound?
**A.** The treatment effect was “effectively treated”.

**Q.** And the measures of pain [6]?
**A.** The measures of pain was “significant reductions in all measures of pain”.

**Q.** For `O=C1NC(=O)C(c2ccccc2)CO1` (centres unmarked) [oxazinane-dione 9], which stability [7] is on record?
**A.** The stability was “unstable”.
